Tested on: 8F4H9B monoclonal antibody
Test: ELISA assay: reactivity of peptides adhering to the solid phase with the 8F4H9B monoclonal antibody
Assay type: binding, mice
Conditions: peptides in monomer form adhering to solid phase (fig.1, fig.2)
Protocol: The solid phase was obtained on PVC trays (Nunc), that were added with 200 µl of a peptide solution at various concentrations in a carbonate buffer 50 mM, pH 9.6. Trays were incubated overnight at 4°C when added with the monomer peptide solution, and for 2 hours at 37°C when added with the tetramer peptide solution.
Trays were saturated with 300 µl of a solution of gelatin 2%, in Tris-HCl, 0.1M, pH 7.5, for 1 hour at room temperature. Antibodies were diluted in a solution, comprising PBS, EDTA 0.03%, Triton-X100 0.2%, Tween 20 0.2% and BSA fraction V 3.2%; and incubated for 3 hours at 37°C. Trays were washed four times with an ET-System Sorin automatic washer, using PBS/Tween 20 0.1%, and the reaction detected by adding 100 µl of a chromogen and a substrate (Sorin DEIA KIT). The reaction was blocked after 30 min. by adding 200 µl of H₂SO₄ 1N, and the absorbance read at 450 nm.

| Substance | reactivity with the 8F4H9B-HRP monoclonal antibody |
| --- | --- |
| DFMWMH [peptide 17 (Table 1)] | reacted with the antibody, even if having shown a lesser reactivity than the PM peptide |
| DVMYLH [peptide 36 (Table 1)] | reacted with the antibody, even if having shown a lesser reactivity than the PM peptide |

Reference: patent publication EP0705841A1, “Peptides havng antigenic activity against hepatitis A virus (HAV)” (SORIN BIOMEDICA S.p.A., priority 1994, dated 1996)
